Among the data in ChEMBL document CHEMBL4368865, “Synthesis, characterization and cytotoxic activity evaluation of ginsengdiol oxidation and nitrogen hybrid derivatives” (Medchemcomm, 2018) are IC50 values, retold here.

System in the first assay: not listed separately
The experiment in a line: Cytotoxicity against human 8901 cells assessed as inhibition of cell proliferation after 48 hrs by MTT assay. Format: functional, cell-based.
Settings: not given
(Tetrazolium dyes change colour on reduction, which living cells bring about.)
The term IC50 denotes the concentration that gives 50% inhibition. As to `COC(C)(C)CCC[C@@](C)(O)[C@H]1CC[C@]2(C)[C@@H]1[C@H](O)C[C@@H]1[C@@](C)(CC(=O)O)[C@H](C(C)(C)C=O)CC[C@]12C`, the IC50 was greater than 100 µM.
With `COC(C)(C)CCC[C@@](C)(O)[C@H]1CC[C@]2(C)[C@@H]1[C@H](O)C[C@@H]1[C@@]3(C)CC[C@H](O)C(C)(C)[C@@H]3CC[C@]12C`, the IC50 stood at 38.5 µM.
As to `CC(C)(O)CCC[C@@](C)(O)[C@H]1CC[C@]2(C)[C@@H]1C(=O)C[C@@H]1[C@@]3(C)CCC(=O)C(C)(C)[C@@H]3CC[C@]12C`, the IC50 was greater than 100 µM.
As to `CC1(C)CCC[C@@](C)(O)[C@H]2CC[C@]3(C)[C@@H]2[C@@H](C[C@@H]2[C@@]4(C)CCC(=O)C(C)(C)[C@@H]4CC[C@]23C)O1`, the IC50 was greater than 100 µM.
The same measure, in the same setting: the result for `COC(C)(C)CCC[C@@](C)(O)[C@H]1CC[C@]2(C)[C@@H]1[C@H](O)C[C@@H]1[C@@]3(C)C=C(O)C(=O)C(C)(C)[C@@H]3CC[C@]12C` reads 25.9 µM; that for `CC1(C)CCC[C@](C)([C@H]2CC[C@]3(C)[C@@H]2[C@H](O)C[C@@H]2[C@@]4(C)Cc5nc6ccccc6nc5C(C)(C)[C@@H]4CC[C@]23C)O1`, greater than 100 µM.

The subject of another assay is MCF7. Put plainly: cells. Format: functional, cell-based. Conditions: Homo sapiens, MCF7, 48 h.
Description: Cytotoxicity against human MCF7 cells assessed as inhibition of cell proliferation after 48 hrs by MTT assay
For `COC(C)(C)CCC[C@@](C)(O)[C@H]1CC[C@]2(C)[C@@H]1[C@H](O)C[C@@H]1[C@@](C)(CC(=O)O)[C@H](C(C)(C)C=O)CC[C@]12C`, the IC50 is greater than 100 µM.
The same measure, in the same setting: as for `COC(C)(C)CCC[C@@](C)(O)[C@H]1CC[C@]2(C)[C@@H]1[C@H](O)C[C@@H]1[C@@]3(C)CC[C@H](O)C(C)(C)[C@@H]3CC[C@]12C`, the figure is 44.6 µM.
On the same count and under the same terms, as for `CC(C)(O)CCC[C@@](C)(O)[C@H]1CC[C@]2(C)[C@@H]1C(=O)C[C@@H]1[C@@]3(C)CCC(=O)C(C)(C)[C@@H]3CC[C@]12C`, the figure is 65.1 µM; as for `CC1(C)CCC[C@@](C)(O)[C@H]2CC[C@]3(C)[C@@H]2[C@@H](C[C@@H]2[C@@]4(C)CCC(=O)C(C)(C)[C@@H]4CC[C@]23C)O1`, 91.9 µM; as for `COC(C)(C)CCC[C@@](C)(O)[C@H]1CC[C@]2(C)[C@@H]1[C@H](O)C[C@@H]1[C@@]3(C)C=C(O)C(=O)C(C)(C)[C@@H]3CC[C@]12C`, 35.7 µM.
On the same count and under the same terms, the result for `CC1(C)CCC[C@](C)([C@H]2CC[C@]3(C)[C@@H]2[C@H](O)C[C@@H]2[C@@]4(C)Cc5nc6ccccc6nc5C(C)(C)[C@@H]4CC[C@]23C)O1` reads greater than 100 µM.

Another assay concerns A549. Put plainly: Cytotoxicity against human A549 cells assessed as inhibition of cell proliferation after 48 hrs by MTT assay. Format: functional, cell-based. Conditions: A549, 48 h.
On to `COC(C)(C)CCC[C@@](C)(O)[C@H]1CC[C@]2(C)[C@@H]1[C@H](O)C[C@@H]1[C@@](C)(CC(=O)O)[C@H](C(C)(C)C=O)CC[C@]12C`, for which the IC50 worked out at 85 µM.
Same read-out and setting: the result for `COC(C)(C)CCC[C@@](C)(O)[C@H]1CC[C@]2(C)[C@@H]1[C@H](O)C[C@@H]1[C@@]3(C)CC[C@H](O)C(C)(C)[C@@H]3CC[C@]12C` reads 29.3 µM; that for `CC(C)(O)CCC[C@@](C)(O)[C@H]1CC[C@]2(C)[C@@H]1C(=O)C[C@@H]1[C@@]3(C)CCC(=O)C(C)(C)[C@@H]3CC[C@]12C`, 90 µM; that for `CC1(C)CCC[C@@](C)(O)[C@H]2CC[C@]3(C)[C@@H]2[C@@H](C[C@@H]2[C@@]4(C)CCC(=O)C(C)(C)[C@@H]4CC[C@]23C)O1`, 86.4 µM.
Same read-out and setting: the result for `COC(C)(C)CCC[C@@](C)(O)[C@H]1CC[C@]2(C)[C@@H]1[C@H](O)C[C@@H]1[C@@]3(C)C=C(O)C(=O)C(C)(C)[C@@H]3CC[C@]12C` reads 21.6 µM.
The same measure, in the same setting: as for `CC1(C)CCC[C@](C)([C@H]2CC[C@]3(C)[C@@H]2[C@H](O)C[C@@H]2[C@@]4(C)Cc5nc6ccccc6nc5C(C)(C)[C@@H]4CC[C@]23C)O1`, the figure is greater than 100 µM.

For a further assay, the system named is HeLa. Put plainly: Cytotoxicity against human HeLa cells assessed as inhibition of cell proliferation after 48 hrs by MTT assay.
Settings: not given
Type of assay: functional, cell-based.
For the molecule `COC(C)(C)CCC[C@@](C)(O)[C@H]1CC[C@]2(C)[C@@H]1[C@H](O)C[C@@H]1[C@@](C)(CC(=O)O)[C@H](C(C)(C)C=O)CC[C@]12C`, the IC50 is greater than 100 µM.
Same read-out and setting: the result for `COC(C)(C)CCC[C@@](C)(O)[C@H]1CC[C@]2(C)[C@@H]1[C@H](O)C[C@@H]1[C@@]3(C)CC[C@H](O)C(C)(C)[C@@H]3CC[C@]12C` reads 29.4 µM; that for `CC(C)(O)CCC[C@@](C)(O)[C@H]1CC[C@]2(C)[C@@H]1C(=O)C[C@@H]1[C@@]3(C)CCC(=O)C(C)(C)[C@@H]3CC[C@]12C`, greater than 100 µM.
Still for that read-out and setting: as for `CC1(C)CCC[C@@](C)(O)[C@H]2CC[C@]3(C)[C@@H]2[C@@H](C[C@@H]2[C@@]4(C)CCC(=O)C(C)(C)[C@@H]4CC[C@]23C)O1`, the figure is greater than 100 µM; as for `COC(C)(C)CCC[C@@](C)(O)[C@H]1CC[C@]2(C)[C@@H]1[C@H](O)C[C@@H]1[C@@]3(C)C=C(O)C(=O)C(C)(C)[C@@H]3CC[C@]12C`, 39 µM; as for `CC1(C)CCC[C@](C)([C@H]2CC[C@]3(C)[C@@H]2[C@H](O)C[C@@H]2[C@@]4(C)Cc5nc6ccccc6nc5C(C)(C)[C@@H]4CC[C@]23C)O1`, greater than 100 µM.

The test system of the next assay is U-87 MG. Put plainly: Cytotoxicity against human U87 cells assessed as inhibition of cell proliferation after 48 hrs by MTT assay. Format: functional, cell-based, U-87MG ATCC.
Settings: not given
As for `COC(C)(C)CCC[C@@](C)(O)[C@H]1CC[C@]2(C)[C@@H]1[C@H](O)C[C@@H]1[C@@](C)(CC(=O)O)[C@H](C(C)(C)C=O)CC[C@]12C`, the IC50 is greater than 100 µM.
Still for that read-out and setting: the result for `COC(C)(C)CCC[C@@](C)(O)[C@H]1CC[C@]2(C)[C@@H]1[C@H](O)C[C@@H]1[C@@]3(C)CC[C@H](O)C(C)(C)[C@@H]3CC[C@]12C` reads 19.5 µM; that for `CC(C)(O)CCC[C@@](C)(O)[C@H]1CC[C@]2(C)[C@@H]1C(=O)C[C@@H]1[C@@]3(C)CCC(=O)C(C)(C)[C@@H]3CC[C@]12C`, greater than 100 µM.
On the same count and under the same terms, as for `CC1(C)CCC[C@@](C)(O)[C@H]2CC[C@]3(C)[C@@H]2[C@@H](C[C@@H]2[C@@]4(C)CCC(=O)C(C)(C)[C@@H]4CC[C@]23C)O1`, the figure is 76.4 µM; as for `COC(C)(C)CCC[C@@](C)(O)[C@H]1CC[C@]2(C)[C@@H]1[C@H](O)C[C@@H]1[C@@]3(C)C=C(O)C(=O)C(C)(C)[C@@H]3CC[C@]12C`, 20.7 µM; as for `CC1(C)CCC[C@](C)([C@H]2CC[C@]3(C)[C@@H]2[C@H](O)C[C@@H]2[C@@]4(C)Cc5nc6ccccc6nc5C(C)(C)[C@@H]4CC[C@]23C)O1`, greater than 100 µM.

System in another assay: not listed separately
Put plainly: Cytotoxicity against human IOSE-144 cells assessed as inhibition of cell proliferation after 48 hrs by MTT assay. Conditions: IOSE-144, 48 h. Type of assay: cell-based.
As to `COC(C)(C)CCC[C@@](C)(O)[C@H]1CC[C@]2(C)[C@@H]1[C@H](O)C[C@@H]1[C@@](C)(CC(=O)O)[C@H](C(C)(C)C=O)CC[C@]12C`, the IC50 is greater than 100 µM.
Regarding `COC(C)(C)CCC[C@@](C)(O)[C@H]1CC[C@]2(C)[C@@H]1[C@H](O)C[C@@H]1[C@@]3(C)CC[C@H](O)C(C)(C)[C@@H]3CC[C@]12C`, the IC50 is greater than 100 µM.
Same read-out and setting: the result for `CC(C)(O)CCC[C@@](C)(O)[C@H]1CC[C@]2(C)[C@@H]1C(=O)C[C@@H]1[C@@]3(C)CCC(=O)C(C)(C)[C@@H]3CC[C@]12C` reads greater than 100 µM.
Still for that read-out and setting: as for `CC1(C)CCC[C@@](C)(O)[C@H]2CC[C@]3(C)[C@@H]2[C@@H](C[C@@H]2[C@@]4(C)CCC(=O)C(C)(C)[C@@H]4CC[C@]23C)O1`, the figure is greater than 100 µM; as for `COC(C)(C)CCC[C@@](C)(O)[C@H]1CC[C@]2(C)[C@@H]1[C@H](O)C[C@@H]1[C@@]3(C)C=C(O)C(=O)C(C)(C)[C@@H]3CC[C@]12C`, greater than 100 µM.
`CC1(C)CCC[C@](C)([C@H]2CC[C@]3(C)[C@@H]2[C@H](O)C[C@@H]2[C@@]4(C)Cc5nc6ccccc6nc5C(C)(C)[C@@H]4CC[C@]23C)O1`: the 50% inhibitory concentration (IC50) is greater than 100 µM.
